Where two headings read alike, the source gives them in different places.
Columns and labels:
[1] = tested on: H. pylori strain M91 (MTZ + CLR resistant); experiment: Growth curve method / MIC, resistant strain M91; format: cell-based, Helicobacter pylori; details: Helicobacter pylori, strain M91, MTZ + CLR resistant
Method: The representative PNP inhibitor from H. pylori included in this study was immucillin A. The experiment was conducted using the growth curve method (two-fold serial dilutions in liquid medium). The tested H. pylori strains were cultured in Petri dishes with BHI solid medium supplemented with 10% FBS and 1% H. pylori Selective Supplement antibiotic kit, in anaerostats under microaerophilic conditions (5% 02, 10% CO2, 85% N2) at 37° C. for 3 days. Liquid culture of H. pylori was conducted overnight with shaking at 37° C. under microaerophilic conditions in BHI medium supplemented with 10% FBS and 1% H. pylori Selective Supplement antibiotic kit. Subsequently, for the essential experiment of determining the minimum inhibitory concentration (MIC), double strengthened liquid BHI medium was prepared, that is, supplemented with 20% FBS and a 2% set of H. pylori Selective Supplement antibiotics.
Bacterial proliferation inhibition experiments were carried out in 24-deep-well 2 ml flat-bottomed plates at a solution volume per well of 0.5 ml. In a single well, double strengthened (relative to the concentration planned for testing) solutions of the test inhibitor and double strengthened liquid BHI medium inoculated with H. pylori (10^4-10^5 CFU/ml in the final volume in the well, corresponding to the optical density of the culture OD600=0.05) were mixed together in a 1:1 ratio.
Kanamycin at a concentration of 25 μg/ml (Irie et al., 1997) was used as a positive control, while Mili-Q deionized water and BHI medium not inoculated with bacteria were used as negative controls. Plates were shaken at 37° C., under microaerophilic conditions. […] After 24 hours, the OD600 of samples containing the negative control, i.e. with Mili-Q deionized water, was about 1.2-1.4, corresponding to a bacterial concentration of about […].
In addition, the method proposed by Knezevic et al. (2018) was used to check whether the observed OD600 was from live bacterial cells. For this purpose, an equal volume of Christensen's double strength urea broth (that is, containing twice the concentration of all components) was added to the wells after incubation, and the plates were additionally incubated for 4 hours in an oxygen atmosphere at 37° C. During incubation, in wells with urease produced by live bacteria, urea is converted to ammonia and carbon dioxide, changing the pH of the solution and thus the colour of the phenol red indicator contained in the medium (from orange to purple).
All experiments were performed in triplicate.
The antibacterial activity of two compounds, mefloquine (in the form of hydrochloride) and quinine, described in the literature as potent in vitro inhibitors of the PNP enzyme from Plasmodium falciparum (Dziekan et al., 2019), was tested. Using a two-fold serial dilution method in liquid medium (as described in Example 3), the MIC values for mefloquine and quinine were determined against clinical H. pylori strains resistant to MTZ, CLR and MTZ+CLR (M26, M91, M92 and M93), as well as the reference H. pylori strain 26695. Four clinical H. pylori strains isolated from adults, from primary infections (the subjects had never previously been treated against H. pylori infection) were tested. These strains come from the collection of the Department of Microbiology of the Medical University of Wroclaw and were obtained due to collaboration with Prof. Grażyna Gościniak, MD, PhD. The tested compounds belong to organic substances and are soluble in DMSO. The maximum tested concentration of quinine in H. pylori culture was 0.56 mM, and that of mefloquine was 2.25 mM. […] On each occasion, the effect of DMSO alone on the growth of the H. pylori strains tested was also checked. […] Kanamycin was used as a positive control and Mili-Q deionised water as a negative control. All experiments were carried out in triplicate. […]

[2] = target: T1, AdSS from H. pylori strain 26695 (Helicobacter pylori, UniProt P56137); experiment: AdSS enzyme activity assay (adenylosuccinate formation, 280 nm); format: biochemical; details: for AdSS activity after incubation: 1.23 U/mg in the absence of PLP
T1 construct: made in house; host or cells: E. coli BL21 (DE3)
T1 sequence (P56137 1-411): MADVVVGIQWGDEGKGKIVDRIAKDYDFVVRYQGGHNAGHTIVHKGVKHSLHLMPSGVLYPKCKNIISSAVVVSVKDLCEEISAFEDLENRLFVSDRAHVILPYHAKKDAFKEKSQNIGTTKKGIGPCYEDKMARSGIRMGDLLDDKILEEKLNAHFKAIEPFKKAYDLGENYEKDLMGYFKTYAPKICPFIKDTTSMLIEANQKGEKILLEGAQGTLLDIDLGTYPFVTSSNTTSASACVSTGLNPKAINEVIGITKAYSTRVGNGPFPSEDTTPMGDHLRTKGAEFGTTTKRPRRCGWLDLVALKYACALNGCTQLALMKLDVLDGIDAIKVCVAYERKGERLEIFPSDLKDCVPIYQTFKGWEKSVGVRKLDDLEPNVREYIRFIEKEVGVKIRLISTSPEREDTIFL
Method: Enzymatic activity measurements were carried out in the similar manner as described in Bubić et al. (2018), at 25° C., in cuvettes with an optical path length of 1 cm containing 1 ml of reaction mixture consisting of 20 mM Hepes/NaOH buffer pH 7.7, 1 mM MgSO4 and the substrates, GTP, IMP and Asp. Saturating concentrations of substrates, namely GTP: 0.06 mM, IMP: 0.15 mM and Asp: 5 mM, were used to measure specific activity. The extinction coefficient at 280 nm of 1.17×10^4 M^−1 cm^−1 (adenylosuccinate formation) was used to calculate the concentration of the product formed (Rudolph and Fromm 1969). One unit (U) of AdSS specific activity is defined as μmol of adenylosuccinate produced per minute at 25° C. Specific activity is expressed as units of enzymatic activity per mg of protein (U/mg).
Inhibition of AdSS by PLP was examined first at saturation with all enzyme substrates and with increasing concentrations of the PLP inhibitor.
To determine the extent to which PLP-induced inactivation develops over time, the enzyme at low concentration (0.022 μM) was incubated at 25° C. in Hepes/NaOH buffer pH 7.0, in the presence of 1.11 mM MgSO4, 5.55 mM Asp, 167 μM IMP and PLP at various concentrations (ranging between 0.03 μM and 8.1 μM). The mixture contained all components necessary for the reaction with the exception of GTP, which, according to Dong and Fromm (1990), competes with PLP. Aliquots of 900 μl were taken from the incubated mixture at specified time intervals, placed in a cuvette and 100 μl of 0.6 mM GTP solution was added to initiate the reaction. The enzyme activity was determined and analysed in the known manner as described above.
Exponential decays were fitted to the data obtained for each concentration and the reaction rate constant of the inactivation process, k, and the residual enzymatic activity observed when the system reached equilibrium, A∞, were obtained as fitting parameters. From these parameters, the half-life of the inactivation process activity, t1/2, was calculated. The dependence of these three parameters on PLP concentration is shown in the lower panel of FIG. 12.
The inhibition of AdSS from H. pylori by pyridoxal (PI-h) was studied at saturation with all enzyme substrates and with increasing concentrations of the inhibitor, similar to that for PLP in Example 10a).

[3] = 8.1 μM PLP, about 10 minutes of incubation without GTP

## Cc1ncc(CO)c(C=O)c1O.Cl [PI-h, pyridoxal hydrochloride]
[1]; read-out: MIC
  MIC: 255 µg/mL
[1]; read-out: MIC (Table 7)
  MIC: 1.25 µM
[2]; 400 μM (maximum used), saturating substrates
  effect on AdSS activity: no effect on AdSS activity

## Cc1ncc(COP(=O)(O)O)c(C=O)c1O [PLP, pyridoxal 5′-phosphate]
[1]; read-out: MIC
  MIC: 309 to 618 µg/mL
[1]; read-out: MIC (Table 7)
  MIC: 1.25 to 2.5 µM
[2]
  IC50: 13.3 µM
[2]; 0.03 μM PLP, about 4 hours of incubation without GTP
  AdSS activity after incubation: 0.48 U/mg
[2]; 0.03 μM PLP, enzyme 0.022 μM incubated without GTP, 25° C.
  inactivation of AdSS: more than 50%
[2]; 1 μM PLP, incubation without GTP
  inactivation of the enzyme: 90%
[2]; [3]
  decrease in AdSS activity: about 97%
  AdSS activity after incubation: 0.04 U/mg
[2]; PLP above about 100 μM, saturating substrates, 25° C., pH 7.7
  decrease of enzyme activity: 86%

Reference: patent US20250195498A1, “INHIBITOR OF CELLULAR PURINE NUCLEOTIDE SALVAGE PATHWAY ENZYME FOR USE IN THE TREATMENT AND/OR PREVENTION OF HELICOBACTER PYLORI INFECTION AND/OR DISEASE ASSOCIATED WITH SUCH INFECTION AND PHARMACEUTICAL COMPOSITION COMPRISING THE SAME” (UNIWERSYTET WARSZAWSKI, priority 2022, published 2025)
